In brackets after ≈: the same amount, converted by molar mass. Read-outs that look alike come from different tables or passages of the source.
Legend:
Assay in all cases: MIC by agar dilution method in Mueller Hinton agar
Type in all cases: cell-based
S. aureus 6538 = details: Staphylococcus aureus, 6538
Description: (§1) In vitro activity was determined by minimum inhibitory concentration in a microorganism spectrum by the agar dilution method in Mueller Hinton agar.

C. difficile ZH1 = details: Clostridioides difficile, ZH1
Description: as §1

E. cloacae 908R = details: Enterobacter cloacae
Description: as §1

M. catarrhalis RA21 = details: Moraxella catarrhalis
Description: as §1

L. monocytogenes BK23 = details: Listeria monocytogenes, BK23
Description: as §1

S. viridans group 016 = details: Streptococcus viridans, GROUP016
Description: as §1

B. fragilis ATCC25285 = details: Bacteroides fragilis, ATCC25285
Description: as §1

S. aureus 734 MRSA = details: Staphylococcus aureus, MRSA
Description: as §1

S. marscescens 69438 = test system: S. marscescens 69438
Description: as §1

E. cloacae 908SSi = details: Enterobacter cloacae, 908SSI
Description: as §1

X. maltophilia 1AC739 = details: Stenotrophomonas maltophilia
Description: as §1

Acinetobacter sp. 51-156 = details: SP.51156
Description: as §1

P. vulgaris 1028 = details: Proteus vulgaris
Description: as §1

S. pneumoniae Q19 = details: Streptococcus pneumoniae
Description: as §1

H. influenzae 1 = details: Haemophilus influenzae
Description: as §1

P. aeruginosa 27853 = details: Pseudomonas aeruginosa
Description: as §1

C. freundii 43 = details: Citrobacter freundii, 43
Description: as §1

[1] = test system: P. asaccharolyticus 29743; details: Peptoniphilus asaccharolyticus
Description: as §1

E. faecalis 6 = details: Enterococcus faecalis, 6
Description: as §1

S. agalactiae QK44 = details: Streptococcus agalactiae
Description: as §1

E. coli 25922 = details: Escherichia coli, 25922
Description: as §1

P. mirabilis 2117 = details: Proteus mirabilis, 2117
Description: as §1

M. morganii 6H-137 = details: Morganella morganii, 6H137
Description: as §1

K. pneumoniae 418 = details: Klebsiella pneumoniae, 418
Description: as §1

C. freundii 902 = details: Citrobacter freundii, 902
Description: as §1

Row | Compound | MIC (S. aureus 6538) [µg/mL] | MIC (L. monocytogenes BK23) [µg/mL] | MIC (S. viridans group 016) [µg/mL] | MIC (S. aureus 734 MRSA) [µg/mL] | MIC (S. marscescens 69438) [µg/mL] | MIC (E. cloacae 908SSi) [µg/mL] | MIC (S. pneumoniae Q19) [µg/mL] | MIC (H. influenzae 1) [µg/mL] | MIC (C. freundii 43) [µg/mL] | MIC (E. faecalis 6) [µg/mL] | MIC (S. agalactiae QK44) [µg/mL] | other results
1 | Nc1nc(/C(=N/O)C(=O)N[C@@H]2C(=O)N3C(C(=O)O)=C(/C=C4\CCN(c5ccc(O)cc5)C4=O)CS[C@H]23)cs1 [A, (6R,7R)-7-[(Z)-2-(2-Amino-thiazol-4-yl)-2-hydroxyimino-acetylamino]-3-[(E)-1-(4-hydroxy-phenyl)-2-oxo-pyrrolidin-3-ylidenemethyl]-8-oxo-5-thia-1-azabicyclo[4.2.0]oct-2-ene-2-carboxylic acid] | 0.25 (≈ 0.449 µM) | 4 (≈ 7.19 µM) | 0.25 (≈ 0.449 µM) | 4 (≈ 7.19 µM) | 0.5 (≈ 0.898 µM) | 0.25 (≈ 0.449 µM) | 0.12 (≈ 0.216 µM) | 0.25 (≈ 0.449 µM) | 4 (≈ 7.19 µM) | 0.5 (≈ 0.898 µM) | 0.25 (≈ 0.449 µM) | MIC (C. difficile ZH1): 8 µg/mL (≈ 14.4 µM); MIC (E. cloacae 908R; E. cloacae 908R, read-out: MIC): 16 µg/mL (≈ 28.7 µM); MIC (M. catarrhalis RA21; M. catarrhalis RA21, read-out: MIC): 16 µg/mL (≈ 28.7 µM); MIC (B. fragilis ATCC25285): 4 µg/mL (≈ 7.19 µM); MIC (X. maltophilia 1AC739; X. maltophilia 1AC739, read-out: MIC): > 32 µg/mL; MIC (Acinetobacter sp. 51-156; Acinetobacter sp. 51-156, read-out: MIC): 16 µg/mL (≈ 28.7 µM); MIC (P. vulgaris 1028; P. vulgaris 1028, read-out: MIC): 32 µg/mL (≈ 57.5 µM); MIC (P. aeruginosa 27853; 27853): 4 µg/mL (≈ 7.19 µM); MIC [1]: 0.25 µg/mL (≈ 0.449 µM)
2 | C=CC1=C(C(=O)O)N2C(=O)[C@@H](NC(=O)/C(=N\O)c3csc(N)n3)[C@H]2SC1 [I, [6R[6a,7b(Z)]7-(2-Amino-4-thiazolyl)[(hydroxyimino)]acetyl]amino3-ethenyl 8-oxo-5-thia-1-azabicyclo-[4.2.0]oct2-ene-2-carboxylic acid, reference compound] | 0.5 (≈ 1.26 µM) | 16 (≈ 40.5 µM) | 2 (≈ 5.06 µM) | > 32 | 16 (≈ 40.5 µM) | 32 (≈ 80.9 µM) | 0.25 (≈ 0.632 µM) | 0.5 (≈ 1.26 µM) | > 32 | 8 (≈ 20.2 µM) | 0.25 (≈ 0.632 µM) | MIC (E. cloacae 908R; 908R): > 32 µg/mL; MIC (M. catarrhalis RA21; RA21): 1 µg/mL (≈ 2.53 µM); MIC (X. maltophilia 1AC739; 1AC739): > 32 µg/mL; MIC (E. coli 25922): 0.25 µg/mL (≈ 0.632 µM); MIC (P. mirabilis 2117): 0.12 µg/mL (≈ 0.303 µM); MIC (M. morganii 6H-137): 8 µg/mL (≈ 20.2 µM); MIC (K. pneumoniae 418): 0.12 µg/mL (≈ 0.303 µM); MIC (Acinetobacter sp. 51-156; Acinetobacter): > 32 µg/mL; MIC (P. vulgaris 1028; 1028): 1 µg/mL (≈ 2.53 µM); MIC (C. freundii 902): 16 µg/mL (≈ 40.5 µM); MIC (P. aeruginosa 27853; P. aeruginosa 27853, read-out: MIC): > 32 µg/mL
